Among the data in PMC6324581 (Peptide science (Hoboken, N.J.), 2018) are MIC values, retold here.

Values after ≈ are worked out from the molar mass of the structure shown. Square brackets hold non-standard residues; d marks the D form. Ends that are not written are not given here. Peptide text beside a SMILES is read from it. Dap = NC[C@H](N)C(=O)O

For experiment [1], the system named is P. aeruginosa (ATCC:10145). The format is cell-based. Particulars: ATCC:10145, 18 h.
The next experiment relates to E. coli D31. The format is cell-based. Particulars: Mueller Hinton broth, ~10^5 CFU/mL, 18 hours at 37°C, OD600, lowest concentration with no visible growth, average of 3 independent samples.
In experiment [2] the test system is K. pneumonia (ATCC: 700603). The format is cell-based, K. pneumoniae. The note with it: 18 h.
For another experiment, the system named is S. aureus (ATCC: 27660). The format is cell-based. Particulars: ATCC: 27660, 18 h.

The MIC is the smallest concentration in the dilution series that meets the test's criterion for growth inhibition. High values mean a need for much substance, low ones inhibition by little substance. Regarding `CC[C@H](C)[C@H](NC(=O)CNC(=O)[C@H](CN)NC(=O)[C@H](Cc1ccccc1)NC(=O)[C@H](CC(C)C)NC(=O)[C@H](CN)NC(=O)[C@H](CN)NC(=O)[C@H](C)NC(=O)[C@H](CN)NC(=O)[C@H](CN)NC(=O)[C@H](Cc1ccccc1)NC(=O)CNC(=O)[C@H](CN)NC(=O)[C@H](C)NC(=O)[C@H](Cc1c[nH]c2ccccc12)NC(=O)[C@@H](NC(=O)[C@H](CN)NC(=O)[C@@H](NC(=O)[C@H](CC(C)C)NC(=O)[C@H](CN)NC(=O)[C@@H](N)CN)[C@@H](C)CC)C(C)C)C(=O)NCC(=O)O` [PBP-X] (H-[Dap][Dap]LI[Dap]VWA[Dap]GF[Dap][Dap]A[Dap][Dap]LF[Dap]GIG-OH), the MIC was 3.75 µM (≈ 8.02 µg/mL) in experiment [1] and 1.88 µM (≈ 4.02 µg/mL) against E. coli D31.

Take KKAAKAWAKGAKKAKKLAKGAG [PBP-A]: the minimum inhibitory concentration (MIC) (in experiment [1]; in experiment [2]; against E. coli D31) was more than 15 µM throughout.

As for KKLIKVFAKGFKKAKKLWKGIG [PBP-W18], the MIC worked out at 1.88 µM in experiment [1], 0.94 µM with S. aureus (ATCC: 27660) and 1.88 µM in experiment [2].

On to KKLIKVFAKGWKKAKKLFKGIG [PBP-W11], for which the MIC in experiment [1] turned out to be 1.88 µM; in the experiment with S. aureus (ATCC: 27660), 0.47 µM; in experiment [2] it was 1.88 µM.

Take KKLIKVWAKGFKKAKKLFKGIG [PBP]: the MIC amounted to 1.88 µM in experiment [1], 0.94 µM against S. aureus (ATCC: 27660), 1.88 µM in experiment [2] and 0.94 µM in the experiment on E. coli D31.
